Here are results for eight compounds from ChEMBL document CHEMBL1201862, “PubChem BioAssay data set” (2004).

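Briefly, cells in 96-well plates were exposed to five compound concentrations for 48 h, and endpoints were estimated by linear interpolation. At the GI50, growth is halved.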 Calls of active or inactive are those of the source. No stated cut-off is given here; in the data, active = GI50 up to about 1.1 µM and inactive = higher. A value given as a limit tells only on which side of the number the result lay.

Some test systems named below: NCI-H23; SNB-19; COLO 205; EKVX; U-251; SK-MEL-28; MCF7; MDA-N; MDA-MB-435; TK-10; A549; PC-3; HCT-15; KM12; SW-620; HCT-116; K562; MOLT-4; CCRF-CEM.
Common to all, as to experiment: NCI tumour cell line growth inhibition, 48 h

Consider `Cc1ccc(S(=O)(=O)Nc2ccccc2C(=O)c2ccc(C)c(C)c2)cc1`, for which the GI50 in the assay on NCI-H23 is > 100 µM (inactive); in the assay with SNB-19, > 100 µM (inactive); with COLO 205, > 100 µM (inactive); in the assay on EKVX, > 100 µM (inactive); with U-251 it was 85.1 µM (inactive); in the assay with SK-MEL-28 it was > 100 µM (inactive). The GI50 was 52.7 µM (inactive) with MCF7; 74.3 µM (inactive) with MDA-N; 41.9 µM (inactive) in the assay on MDA-MB-435; > 100 µM (inactive) with TK-10; > 100 µM (inactive) in the assay with A549; > 100 µM (inactive) with PC-3. Further, the GI50 is over 100 µM in the assay with HCT-15, 63.4 µM (inactive) in the assay on KM12, > 100 µM (inactive) in the assay with SW-620 and > 100 µM (inactive) in the assay with HCT-116.
On to `CC[C@@H](O)C[C@H]1CCC[C@@]2(C[C@@H]3OC(=O)/C=C/[C@@](C)(O)[C@@H](O)[C@H](C)[C@@H](O)[C@H](OC4CCC(N(C)C)C(C)O4)[C@@H](O)[C@](C)(O)CCCCC/C=C/[C@@H]4CC(C)(C)O[C@@]4(O)C[C@H](O2)[C@H]3C)O1` (stereo not given in full), for which the GI50 with NCI-H23 was < 0.01 µM (active); in the assay with COLO 205 it was < 0.01 µM (active); in the assay with EKVX it was < 0.01 µM (active); in the assay with K562, < 0.01 µM (active); with U-251 it was < 0.01 µM (active); with SK-MEL-28, 15.8 µM (inactive). In addition, the GI50 was < 0.01 µM (active) in the assay with MCF7; 2.96 µM (inactive) in the assay with MDA-N; 1.91 µM (inactive) with MOLT-4; 0.927 µM (active) with MDA-MB-435; < 0.01 µM (active) in the assay on A549; 15.9 µM (inactive) with CCRF-CEM. The GI50 in the assay with HCT-15 is 11.5 µM; in the assay with KM12, 0.34 µM (active); in the assay on SW-620, 16.6 µM (inactive); with HCT-116, 1.54 µM (inactive).
For `COC(=O)[C@H](Cc1c[nH]c2ccccc12)NC(=O)c1ccccc1I`, the GI50 with SNB-19 is > 100 µM (inactive); with COLO 205, 17.5 µM (inactive); in the assay on EKVX, > 100 µM (inactive); with K562 it was 29.3 µM (inactive); with U-251, 31 µM (inactive); in the assay on SK-MEL-28 it was 89.3 µM (inactive). The GI50 with MCF7 was 37.8 µM (inactive); in the assay on MDA-N, 8.41 µM (inactive); in the assay with MOLT-4 it was 17.5 µM (inactive); in the assay with MDA-MB-435 it was 25.4 µM (inactive); in the assay with TK-10, 24.4 µM (inactive); in the assay on A549 it was > 100 µM (inactive). The GI50 with PC-3 is 24.6 µM (inactive); in the assay with HCT-15 it was over 100 µM; in the assay with KM12 it was 41.4 µM (inactive); in the assay with SW-620, 31.5 µM (inactive); in the assay on HCT-116 it was 16.3 µM (inactive).
`Cc1ccc(OC2CC(n3cnc4ncnc(Cl)c43)OC2Oc2ccc(C)cc2)cc1` (stereo not given): the GI50 in the assay with NCI-H23 is 24.8 µM (inactive); with SNB-19, 16.1 µM (inactive); in the assay with COLO 205, 14.8 µM (inactive); with EKVX, 33.3 µM (inactive); in the assay on U-251, 36.1 µM (inactive); in the assay on SK-MEL-28, > 100 µM (inactive). Besides, the GI50 in the assay with MCF7 is 5.96 µM (inactive); with MDA-N, 22.4 µM (inactive); in the assay on MOLT-4, 4.49 µM (inactive); in the assay on MDA-MB-435, 39.1 µM (inactive); in the assay with TK-10, > 100 µM (inactive); with A549, 25.2 µM (inactive). Further, the GI50 was 16.4 µM (inactive) with PC-3; 13.8 µM in the assay with HCT-15; 18.4 µM (inactive) in the assay on KM12; 48.5 µM (inactive) in the assay with SW-620; 9.77 µM (inactive) with HCT-116.
In the case of `Cc1ccc(S(=O)(=O)OC2C(C3COC(C)(C)O3)OC3OC(C)(C)OC32)cc1` (stereo not given), the GI50 in the assay with NCI-H23, with SNB-19, in the assay with EKVX, with K562, in the assay with U-251 and with SK-MEL-28 was > 100 µM (inactive) each time. Moreover, the GI50 in the assay on MDA-N, in the assay on MOLT-4, in the assay with MDA-MB-435, in the assay with TK-10, in the assay on A549 and in the assay with PC-3 was > 100 µM (inactive) throughout. Also, the GI50 was > 100 µM (inactive) in the assay with CCRF-CEM; over 100 µM in the assay with HCT-15; > 100 µM (inactive) in the assay with KM12; > 100 µM (inactive) in the assay with SW-620; > 100 µM (inactive) in the assay on HCT-116.
Regarding `COC(=O)c1c(C)cccc1/C=C1\Cc2ccc(C)c(C)c2C1=O`, the GI50 in the assay on NCI-H23 is > 100 µM (inactive); in the assay with SNB-19, 52.5 µM (inactive); with EKVX it was > 100 µM (inactive); with K562, 8.32 µM (inactive); in the assay with U-251 it was 48.9 µM (inactive); in the assay on SK-MEL-28 it was > 100 µM (inactive). For the same compound, the GI50 with MCF7 was > 100 µM (inactive); in the assay with MDA-N it was > 100 µM (inactive); with MOLT-4 it was 93.8 µM (inactive); in the assay on TK-10, > 100 µM (inactive); with A549, > 100 µM (inactive); in the assay with PC-3, > 100 µM (inactive). Further, the GI50 is > 10 µM (inactive) in the assay with CCRF-CEM; over 100 µM with HCT-15; > 100 µM (inactive) in the assay on KM12; > 100 µM (inactive) with SW-620; > 100 µM (inactive) with HCT-116.
On to `CC(=O)Nc1ccc(C(=O)NN2C(=O)CSC2c2ccc([N+](=O)[O-])cc2)cc1` (stereo not given), for which the GI50 in the assay with NCI-H23, in the assay on SNB-19, with COLO 205, in the assay with EKVX, in the assay on K562 and in the assay on U-251 was > 100 µM (inactive) in each case. The GI50 in the assay with SK-MEL-28, with MCF7, with MDA-N, in the assay with MOLT-4, in the assay on MDA-MB-435 and in the assay on TK-10 was > 100 µM (inactive) each time. For the same compound, the GI50 with A549 is > 100 µM (inactive); in the assay on CCRF-CEM, > 100 µM (inactive); in the assay on HCT-15, over 100 µM; with KM12, > 100 µM (inactive); with SW-620, > 100 µM (inactive); with HCT-116, > 100 µM (inactive).
Turning to `C=C1C2C[C@@H]3O[C@H]4C[C@H]5O[C@@]6(C[C@@H]7O[C@]8(C[C@H](C)[C@@H]9O[C@@H]%10CC(C=O)O[C@@H]%10C[C@@H]9O8)C[C@H](C)[C@@H]7O6)C[C@H]5O[C@H]4[C@H](C)[C@H]3OC(=O)C[C@H]3CC[C@@H]4OC5[C@H]6O[C@]7(CC[C@H]8CC(=C)[C@H](CC[C@@H](C[C@H]1C)O2)O8)CC6O[C@@H]5[C@@H](O7)[C@H]4O3` (stereo not given in full), the GI50 in the assay on NCI-H23 is < 0.0001 µM (active); with SNB-19 it was 0.000104 µM (active); in the assay with COLO 205, < 0.0001 µM (active); with EKVX, < 0.0001 µM (active); with K562 it was < 0.0001 µM (active); in the assay with U-251, < 0.0001 µM (active). Besides, the GI50 in the assay with MCF7 is < 0.0001 µM (active); in the assay with MDA-N, < 0.0001 µM (active); in the assay with MOLT-4 it was < 0.0001 µM (active); in the assay with MDA-MB-435 it was < 0.0001 µM (active); in the assay on TK-10 it was 0.00771 µM (active); in the assay on A549, < 0.0001 µM (active). For the same compound, the GI50 was < 0.0001 µM (active) in the assay on PC-3; under 0.0001 µM in the assay on HCT-15; < 0.0001 µM (active) in the assay on KM12; < 0.0001 µM (active) in the assay with SW-620; < 0.0001 µM (active) in the assay on HCT-116.
